{"source": "patent US11447500B2", "about": "“Thienopyridine derivatives and pharmaceutical composition comprising same” (WELLMARKER BIO CO., LTD., priority 2018, dated 2022)", "key": {"RON kinase": {"target": "T1, RON kinase (Homo sapiens, UniProt Q04912)", "T1 construct": "purchased Carna Bioscience", "T1 sequence (Q04912 25-1400)": "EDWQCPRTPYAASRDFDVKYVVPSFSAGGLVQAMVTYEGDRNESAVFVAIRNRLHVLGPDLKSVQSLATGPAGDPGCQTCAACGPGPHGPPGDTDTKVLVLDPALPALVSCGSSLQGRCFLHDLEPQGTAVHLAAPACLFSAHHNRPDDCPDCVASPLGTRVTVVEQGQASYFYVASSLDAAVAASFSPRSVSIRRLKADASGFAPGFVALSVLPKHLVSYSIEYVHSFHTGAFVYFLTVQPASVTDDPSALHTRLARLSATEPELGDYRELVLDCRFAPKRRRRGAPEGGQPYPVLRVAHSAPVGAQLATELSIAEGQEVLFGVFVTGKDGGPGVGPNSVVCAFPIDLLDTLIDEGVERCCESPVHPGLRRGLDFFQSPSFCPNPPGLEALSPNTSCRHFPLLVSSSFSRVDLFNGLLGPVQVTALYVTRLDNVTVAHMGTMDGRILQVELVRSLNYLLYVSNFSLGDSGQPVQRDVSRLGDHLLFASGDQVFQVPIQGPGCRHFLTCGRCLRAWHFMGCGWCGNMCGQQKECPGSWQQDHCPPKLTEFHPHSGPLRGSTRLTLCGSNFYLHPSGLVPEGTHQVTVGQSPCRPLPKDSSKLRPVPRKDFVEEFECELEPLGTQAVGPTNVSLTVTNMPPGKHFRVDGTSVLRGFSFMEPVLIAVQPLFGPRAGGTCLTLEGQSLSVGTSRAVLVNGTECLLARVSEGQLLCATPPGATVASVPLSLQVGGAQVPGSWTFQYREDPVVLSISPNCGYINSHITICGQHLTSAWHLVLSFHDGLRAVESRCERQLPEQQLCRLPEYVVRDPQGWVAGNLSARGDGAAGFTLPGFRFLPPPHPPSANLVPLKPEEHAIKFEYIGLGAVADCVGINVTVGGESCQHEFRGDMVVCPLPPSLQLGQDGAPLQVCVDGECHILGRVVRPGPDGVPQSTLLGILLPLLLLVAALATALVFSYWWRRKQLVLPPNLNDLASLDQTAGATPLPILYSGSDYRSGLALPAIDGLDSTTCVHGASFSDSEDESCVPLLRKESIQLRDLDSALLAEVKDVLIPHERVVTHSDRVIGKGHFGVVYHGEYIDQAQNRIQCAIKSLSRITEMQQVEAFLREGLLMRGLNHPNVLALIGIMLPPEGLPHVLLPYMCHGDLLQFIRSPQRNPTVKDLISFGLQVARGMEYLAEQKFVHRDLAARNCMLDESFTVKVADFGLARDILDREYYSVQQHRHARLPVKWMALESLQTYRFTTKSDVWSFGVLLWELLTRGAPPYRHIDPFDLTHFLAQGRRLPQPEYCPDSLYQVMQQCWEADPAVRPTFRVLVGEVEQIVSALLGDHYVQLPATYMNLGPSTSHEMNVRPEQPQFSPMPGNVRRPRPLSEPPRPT", "assay": "RON kinase enzyme inhibitory activity, FRET (TR-FRET) technique", "assay_type": "biochemical", "conditions": "60 min reaction", "in_short": "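RON kinase (2× stock 0.4 nM) was preincubated 15 min with compound in HEPES pH 7.5/MgCl2 buffer, then reacted 60 min at room temperature with ATP (4× stock 60 μM) and tyrosine peptide substrate (4× stock 400 nM). The reaction was stopped with EDTA plus Eu-anti-phosphotyrosine antibody and read by TR-FRET (ex 340, em 620/665 nm). IC50 came from 665 nm emission versus concentration.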"}, "[1]": {"test_system": "RON-activated KM12C colon cancer cell line", "assay": "Cell killing efficacy, trypan blue exclusion assay, KM12C", "assay_type": "cell-based", "conditions": "48 hours", "in_short": "(§1)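 KM12C (MEM+10% FBS) and HT-29 (RPMI+10% FBS) cells, seeded 24 h earlier, exposed to compound at 1 μM or 5 μM for 48 h after medium change. Live and dead cells counted by trypan blue exclusion (n=2); cell death rate reported relative to a reference comparative compound.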"}, "[2]": {"test_system": "RON-mutated (Δ160) HT-29 colon cancer cell line", "assay": "Cell killing efficacy, trypan blue exclusion assay, HT-29", "assay_type": "cell-based", "conditions": "HT29 cell, 48 hours", "in_short": "as §1"}, "KM12C cells": {"test_system": "KM12C cells", "assay": "Cytotoxicity MTS assay, KM12C", "assay_type": "cell-based", "conditions": "Homo sapiens, 72 hours", "description": "(§2) In order to confirm the specific cytotoxicity of the drugs, the cultured cells were treated with 0.05% trypsin/EDTA (0.5% trypsin EDTA (10×), Product No.: 15400-054, GIBCO) to detach them from the culture dish, and 3,000 cells (KM12C) or 2,000 cells (HT29, Colo 320 HSR) were dispensed into each well.\n(§3) After 24 hours, sample compounds were dissolved in DMSO (Product No.: D8418-250ML, SIGMA) to make 10 mM stock solutions. As the sample compounds, the compounds synthesized in the examples of the present invention and the compounds of the comparative examples were used.\n(§4) The cells were treated with the sample compound dilutions, and cultured in a 5% CO2 incubator at 37° C. for 72 hours.\n(§5) Thereafter, 20 μL of MTS solution (CellTiter™ 96 Aqueous One Solution Cell Proliferation Assay, Product No.: G3581, Promega) was dispensed into each well and mixed well, and the cells were incubated for 1 to 4 hours at 37° C. in a 5% CO2 incubator."}, "HT29 cells": {"test_system": "HT29 cells", "assay": "Cytotoxicity MTS assay, HT29", "assay_type": "cell-based", "conditions": "Homo sapiens, HT-29, 72 hours", "description": "as §2, §3, §4, §5"}}}
{"smiles": "CCOc1ccn(-c2ccc(F)cc2)c(=O)c1C(=O)Nc1ccc(Oc2ccnc3cc(-c4ccc(CN5CCN(C)CC5)cn4)sc23)c(F)c1.Cl", "note": "[Example 33, 4-ethoxy-N-{3-fluoro-4-[(2-{5-[(4-methylpiperazin-1-yl)methyl]pyridin-2-yl}thieno[3,2-b]pyridin-7-yl)oxy]phenyl}-1-(4-fluorophenyl)-2-oxo-1,2-dihydropyridine-3-carboxamide Hydrochloride]", "values": [{"measurement": "IC50", "setting": "RON kinase", "value": 0.26, "unit": "nM"}, {"measurement": "Cell death rate (Relative to Comp. Ex. 1)", "setting": "[1]; 1 μM", "value": "x 1.99"}, {"measurement": "Cell death rate (Relative to Comp. Ex. 1)", "setting": "[1]; 5 μM", "value": "x 2.13"}, {"measurement": "Cell death rate (Relative to Comp. Ex. 1)", "setting": "[2]; 1 μM", "value": "x 2.01"}, {"measurement": "Cell death rate (Relative to Comp. Ex. 1)", "setting": "[2]; 5 μM", "value": "x 1.50"}, {"measurement": "IC50", "setting": "KM12C cells", "value": 9, "unit": "nM"}, {"measurement": "IC50", "setting": "HT29 cells", "value": 335, "unit": "nM"}]}
